The record followed here is patent US9808434B2, “Compound for treating cancer and diabetes” (CITY OF HOPE, priority 2011, dated 2017).

In series [1] the test system is HMLE breast cancer cell line. As to the kind of experiment: HMLE viability, DIMSCAN assay. Format: cell-based, human. To be noted: 3 days, 2-50 μM. As to the method:
The effects of COH-SR compounds on breast cancer cells were investigated. Cells from 4T1 or HMLE breast cancer cell line were seeded in 96-well plates (about 2000 cells/well), allowed to proliferate for one day, treated with a COH-SR compound, doxorubicin, paclitaxel, cisplatin, or nothing (control) at a specific dose (3 wells for each treatment) and assayed for cell viability 3 days after using DIMSCAN assay. COH-SR3, COH-SR4, COH-SR9, doxorubicin, paclitaxel, and cisplatin were used at a dosage of 40 nM, 200 nM, 1 μM, 2 μM, 10 μM, or 50 μM for 4T1 breast cancer cell lines. COH-SR14 was used at a dosage of 40 nM, 200 nM, 1 μM, 2 μM, or 10 μM for 4T1 breast cancer cell lines. COH-SR3, COH-SR4, COH-SR9, doxorubicin, paclitaxel, and cisplatin were used at a dosage of 2 μM, 10 μM, or 50 μM for HMLE breast cancer cell lines. COH-SR14 was used at a dosage of 2 μM, or 10 μM for HMLE breast cancer cell lines.

Series [2] deals with HL-60 cells. Kind of series: HL-60 cell cycle, PI flow cytometry. Format: cell-based, human. The note with it: for cells in the S phase: 3 μM, control 47%; for viable cells arrested in G0/G1 phase: 48-hour treatment. As for the experimental part: HL-60 cells (1×10^6) were incubated with a test compound (COH-SR4 or COH-SR9) at various concentrations (0.5˜3 μM) for 48 hours, washed and harvested. The cells were then fixed and stained with propodium iodide (P1) and the DNA content was analyzed by flow cytometry. Results of each figure were from 3-4 independent experiments. The cell number in each cell cycle phase was calculated and expressed as overall percentage (FIG. 15A). The percentage of cells in G0/G1 were measured from 0-48-hour treatment with test compounds (FIG. 15B), data expressed as mean±SE.

Series [3] deals with HL-60 cells. As to the kind of experiment: HL-60 apoptosis, Annexin V-PI double staining. The series is classed as cell-based, human. To be noted: 3 μM, 48 hours. As for the experimental part:
HL-60 (5×10^5) cells were incubated with a test compound (COH-SR4 or COH-SR9), ATRA, or nothing (Control) for 48 hours, washed and harvested. The cells were then fixed and double stained with Annexin V-FITC and propodium iodide (PI) and analyzed by flow cytometry. Conjugation of Annexin V and PI staining was used to identify apoptosis cells (early stage and late stage), normal/viable cells and necrotic cells. The percentage distribution of normal/viable (R3, lower left quadrant), early apoptotic (R4, lower right quadrant), late apoptotic (R2, upper right quadrant) and necrotic cells (R1, upper left quadrant) was calculated using Summit software. The percentages of apoptotic cells after treatment with various doses of each compound are shown in FIGS. 16A-H. Both COH-SR4 and COH-SR9 treatment of HL-60 cells increased the number of early apoptotic and late apoptotic cells in a dose-dependent manner compared with untreated cells. At 3 μM, overall apoptotic cells were ˜60% and 40% for COH-SR4 and COHSR9, respectively.

The subject of series [4] is H358 cells. Kind of series: MTT assay, H358. Format: cell-based. The note with it: Homo sapiens, NCI-H358, 48 h. As for the experimental part:
Cell density measurements were performed using a hemocytometer to count reproductive cells resistant to staining with trypan blue. Approximately 20,000 cells were plated into each well of 96-well flat-bottomed micro-titer plates. After 12 h or 24 h incubation at 37° C., medium containing either COH-SR4 (ranging 0-200 μM) or elesclomol (ranging 0-20 μM) were added to the cells. After 24 h, 48 h or 96 h incubation, 20 μL of 5 mg/mL MTT were introduced to each well and incubated for 2 h. The plates were centrifuged and medium was decanted. Cells were subsequently dissolved in 100 μl DMSO with gentle shaking for 2 h at room temperature, followed by measurement of OD570 (91).
The effect of COH-SR4 was first examined in a NCI panel of cancer cell lines, the results of which indicated good activity of COH-SR4 towards lung cancer (FIG. 78A). […] Values are presented as mean±SD from two separate determinations with eight replicates each (n=16) (FIG. 78B). […] Standard colony-forming assay was performed and the colonies were counted using Innotech Alpha Imager HP. […] TUNEL assay was performed using Promega fluorescence detection kit and examined using Zeiss LSM 510 META laser-scanning fluorescence microscope with filters 520 and 620 nm. […]

For series [5], the system named is A2058 cells. Kind of series: Mitochondrial membrane depolarization, TMRE. To be noted: 5 μM. Format: cell-based, human. As to the method:
Cells (4×10^5/well in 6-well plates) cultured overnight were pre-incubated with the fluorescent indicator of MMP tetramethylrhodamine ester (TMRE, 200 nM) or DMSO control for 30 min at 37° C. in CO2 incubator. Cells were washed with pre-warmed normal DMEM media, and test compounds were added with fresh media for the indicated times. Cells were then trypsinized, collected, centrifuged for 5 min at 800×g, and washed once in pre-warmed PBS-0.2% BSA. Cells were then resuspended in the same buffer prior to flow cytometric analysis. A total of 30,000 cells were counted per sample and data was analyzed by Cyan ADP flow cytometer with excitation/emission of 488 nm/572 nm (Beckman Coulter, Inc., Brea, Calif.). For measurements of membrane potential in isolated mouse liver mitochondria, the organelles were pre-incubated with 200 nM TMRE in MASSRO buffer (MAS buffer supplemented with 10 mM succinate, 1 μM rotenone, and 1 μM oligomycin) for 20 min at 25° C. The mitochondria were centrifuged for 5 min at 3000×g and resuspended in MASSRO buffer. Mitochondria were then added to MASSRO buffer containing the indicated concentrations of COH-SR4, FCCP or DMSO vehicle control and incubated at room temperature for 15 min. […] TMRE fluorescence was measured with a microplate reader (Tecan Infinite M200 Pro, Tecan Group Ltd., Switzerland) using an excitation emission of 545ex/580em. […]

With `O=C(Nc1cc(Cl)cc(Cl)c1)Nc1cc(Cl)cc(Cl)c1` [COH-SR4, 1,3-bis(3,5-dichlorophenyl) urea], the “cytotoxic effects compared with doxorubicin, paclitaxel and cisplatin (FIG. 30)” value in series [1] is listed as “more potent cytotoxic effects”. Also, in series [2], the “cells in the S phase” value amounted to 10% and the “viable cells arrested in G0/G1 phase” value was 85%. For the same compound, the overall apoptotic cells in series [3] is ~60%. For the same compound, in series [4], the half-maximal inhibitory concentration (IC50) is 2.1 ± 0.2 µM. The “mitochondrial membrane depolarization (TMRE fluorescence)” value in series [5] was “induced mitochondrial membrane depolarization in a time-dependent manner”.

Take `Cc1c(Cl)cc(NC(=O)Nc2cc(Cl)cc(Cl)c2)c(O)c1Cl` [COH-SR9, 1-(3,5-dichlorophenyl)-3-(3,5-dichloro-2-hydroxy-4-methyphenyl) urea]: the “cytotoxic effects compared with doxorubicin, paclitaxel and cisplatin (FIG. 30)” value in series [1] was “more potent cytotoxic effects”. In addition, in series [2], the “cells in the S phase” value turned out to be 13% and the “viable cells arrested in G0/G1 phase” value is recorded as 85%. This compound also registered an overall apoptotic cells in series [3] of 40%.
